# Data reported in patent publication US9012470B2 (Dart NeuroScience (Cayman) Ltd., priority 2010, dated 2015).
# Structures can show the parent of a compound that is named as a salt.
# Tested on: benzodiazepine site of GABAA
# Assay: Binding assay, benzodiazepine site of GABAA (binding assay 1: rat brain, (3H)-flunitrazepam; binding assay 2: bovine hippocampal membranes, [3H]-RY80)
# Settings: radioligand binding; for % Inhibition at 10 μM: 10 μM test compound; for % Inhibition at 0.1 μM: 0.1 μM test compound
# Method: The ability of a compound disclosed herein to act as ligand to the benzodiazepine site of GABAA can be determined using pharmacological models which are well known in the art using the following assay.
# Binding assay 1: Whole brain (except cerebellum) of male Wistar derived rats weighing 175±25 g were used to prepare GABAA central benzodiazepine receptor in Na—K phosphate buffer pH 7.4. A 5 mg aliquot was incubated with 1 nM (^3H)-flunitrazepam for 60 minutes at 25° C. Experiments were performed in the presence or absence of 30 μM of GABA. Non-specific binding was estimated in the presence of 10 μM of diazepam. Membranes were filtered and washed, the filters were then counted to determine (^3H)-flunitrazepam specifically bound. Test compounds were tested in duplicate according to the required concentrations (Damm, H. W., et al. (1978) Res. Comm. Chem. Pathol. Pharmacol. 22: 597-560 incorporated herein in its entirety; Speth, R. C., et al. (1979) Life Sci. 24: 351-357 incorporated herein in its entirety).
# Receptor Source: Bovine hippocampal membranes
# Radioligand: [3H]-RY80 (40-80 Ci/mmol)
# Final ligand concentration—[0.8 nM]
# Non-specific Determinant: L-655,708—[0.5 μM]
# Binding assay 2 followed procedures based on Li and Szabo (Li M., Szabo A., Rosenberg H. Evaluation of native GABAA receptors containing an α5 subunit. Eur. J. Pharmacol. 413: 63-72 (2001)). Incubation Conditions: Reactions are carried out in 50 mM Tris-Citrate (pH 7.8) containing 200 mM NaCl at 0-4° C. for 60 minutes. The reaction is terminated by rapid vacuum filtration onto glass fiber filters. Radioactivity trapped onto the filters is determined and compared to control values in order to ascertain any interactions of test compound with the benzodiazepine (central) binding site.
Compound,% Inhibition at 10 μM,% Inhibition at 0.1 μM
"CN(C)C(=O)n1ncc2c3nn(-c4ccccc4)c(=O)c-3c[nH]c21 [Compound 7c, N,N-dimethyl-3-oxo-2-phenyl-2,3-dihydrodipyrazolo[3,4-b:3′,4′-d]pyridine-6(5H)-carboxamide. TFA]",B (B indicates % inhibition <80% and >20%),–
"CCNC(=S)n1ncc2c3nn(-c4ccc(Br)cc4)c(=O)c-3c[nH]c21 [Compound 6at, 2-(4-bromophenyl)-N-ethyl-3-oxo-2,3-dihydrodipyrazolo[3,4-b:3′,4′-d]pyridine-6(5H)-carbothioamide]",A (A indicates % inhibition >80%),A (A indicates % inhibition >80%)
"CNC(=O)n1ncc2c3nn(-c4ccc(C(F)(F)F)cc4)c(=O)c-3c[nH]c21 [Compound 6ag, N-methyl-3-oxo-2-(4-(trifluoromethyl)phenyl)-2,3-dihydrodipyrazolo[3,4-b:3′,4′-d]pyridine-6(5H)-carboxamide]",B (B indicates % inhibition <80% and >20%),–
"O=C(Nc1ccccc1)n1cc2[nH]cc3c(=O)n(-c4ccccc4)nc-3c2c1 [Compound 13k, 3-Oxo-N,2-diphenyl-2,3-dihydropyrazolo[3,4-d]pyrrolo[3,4-b]pyridine-7(5H)-carboxamide]",A (A indicates % inhibition >80%),B (B indicates % inhibition <80% and >20%)
"CCCCNC(=O)n1ncc2c3nn(-c4ccc(Cl)cc4F)c(=O)c-3c[nH]c21 [Compound 6ak, N-butyl-2-(4-chloro-2-fluorophenyl)-3-oxo-2,3-dihydrodipyrazolo[3,4-b:3′,4′-d]pyridine-6(5H)-carboxamide]",A (A indicates % inhibition >80%),C (C indicates % inhibition <20%)
"CNC(=O)n1ncc2c3nn(-c4cccc(Cl)c4)c(=O)c-3c[nH]c21 [Compound 6ab, 2-(3-chlorophenyl)-N-methyl-3-oxo-2,3-dihydrodipyrazolo[3,4-b:3′,4′-d]pyridine-6(5H)-carboxamide]",A (A indicates % inhibition >80%),–
"CCCCNC(=O)n1ncc2c3nn(-c4ccccc4F)c(=O)c-3c[nH]c21 [Compound 6al, N-butyl-2-(2-fluorophenyl)-3-oxo-2,3-dihydrodipyrazolo[3,4-b:3′,4′-d]pyridine-6(5H)-carboxamide]",A (A indicates % inhibition >80%),C (C indicates % inhibition <20%)
"CC(C)NC(=O)n1ncc2c3nn(-c4ccc(Cl)cn4)c(=O)c-3c[nH]c21 [Compound 6aw, 2-(5-chloropyridin-2-yl)-N-isopropyl-3-oxo-2,3-dihydrodipyrazolo[3,4-b:3′,4′-d]pyridine-6(5H)-carboxamide]",B (B indicates % inhibition <80% and >20%),–
"CC(C)CNC(=O)n1ncc2c3nn(-c4ccc(F)cc4F)c(=O)c-3c[nH]c21 [Compound 6aq, 2-(2,4-difluorophenyl)-N-isobutyl-3-oxo-2,3-dihydrodipyrazolo[3,4-b:3′,4′-d]pyridine-6(5H)-carboxamide]",B (B indicates % inhibition <80% and >20%),C (C indicates % inhibition <20%)
"CNC(=O)n1ncc2c3nn(-c4ccc(Cl)cn4)c(=O)c-3c[nH]c21 [Compound 6ax, 2-(5-chloropyridin-2-yl)-N-methyl-3-oxo-2,3-dihydrodipyrazolo[3,4-b:3′,4′-d]pyridine-6(5H)-carboxamide]",A (A indicates % inhibition >80%),–
"CCNC(=S)n1ncc2c3nn(-c4ccc(C(C)C)cc4)c(=O)c-3c[nH]c21 [Compound 6au, N-ethyl-2-(4-isopropylphenyl)-3-oxo-2,3-dihydrodipyrazolo[3,4-b:3′,4′-d]pyridine-6(5H)-carbothioamide]",A (A indicates % inhibition >80%),B (B indicates % inhibition <80% and >20%)
"CNC(=O)n1ccc2c3nn(-c4ccccc4)c(=O)c-3c[nH]c21 [Compound 17a, N-Methyl-3-oxo-2-phenyl-2,3-dihydropyrazolo[3,4-d]pyrrolo[2,3-b]pyridine-6(5H)-carboxamide]",C (C indicates % inhibition <20%),C (C indicates % inhibition <20%)
"CC(C)NC(=O)n1ncc2c3nn(-c4ccc(Cl)cc4)c(=O)c-3c[nH]c21 [Compound 6p, 2-(4-chlorophenyl)-N-isopropyl-3-oxo-2,3-dihydrodipyrazolo[3,4-b:3′,4′-d]pyridine-6(5H)-carboxamide]",C (C indicates % inhibition <20%),C (C indicates % inhibition <20%)
"O=C(Nc1ccccc1)n1ccc2c3nn(-c4ccccc4)c(=O)c-3c[nH]c21 [Compound 17d, 3-Oxo-N,2-diphenyl-2,3-dihydropyrazolo[3,4-d]pyrrolo[2,3-b]pyridine-6(5H)-carboxamide]",C (C indicates % inhibition <20%),C (C indicates % inhibition <20%)
"CCCCNC(=O)n1ncc2c3nn(-c4ccc(C(F)(F)F)cc4)c(=O)c-3c[nH]c21 [Compound 6ah, N-butyl-3-oxo-2-(4-(trifluoromethyl)phenyl)-2,3-dihydrodipyrazolo[3,4-b:3′,4′-d]pyridine-6(5H)-carboxamide]",B (B indicates % inhibition <80% and >20%),–
"CCNC(=O)n1cc2[nH]cc3c(=O)n(-c4ccc(Cl)cn4)nc-3c2c1 [Compound 13h, 2-(5-chloropyridin-2-yl)-N-ethyl-3-oxo-2,3-dihydropyrazolo[3,4-d]pyrrolo[3,4-b]pyridine-7(5H)-carboxamide]",A (A indicates % inhibition >80%),A (A indicates % inhibition >80%)
"CC(C)NC(=O)n1ncc2c3nn(-c4cc(C(F)(F)F)cc(C(F)(F)F)c4)c(=O)c-3c[nH]c21 [Compound 6r, 2-(3,5-bis(trifluoromethyl)phenyl)-N-isopropyl-3-oxo-2,3-dihydrodipyrazolo[3,4-b:3′,4′-d]pyridine-6(5H)-carboxamide]",B (B indicates % inhibition <80% and >20%),–
"CCCCNC(=O)n1ncc2c3nn(-c4cccc(C(F)(F)F)c4)c(=O)c-3c[nH]c21 [Compound 6aj, N-butyl-3-oxo-2-(3-(trifluoromethyl)phenyl)-2,3-dihydrodipyrazolo[3,4-b:3′,4′-d]pyridine-6(5H)-carboxamide]",B (B indicates % inhibition <80% and >20%),C (C indicates % inhibition <20%)
"CCNC(=O)n1ncc2c3nn(-c4ccc(Cl)c(C(F)(F)F)c4)c(=O)c-3c[nH]c21 [Compound 6s, 2-(4-chloro-3-(trifluoromethyl)phenyl)-N-ethyl-3-oxo-2,3-dihydrodipyrazolo[3,4-b:3′,4′-d]pyridine-6(5H)-carboxamide]",B (B indicates % inhibition <80% and >20%),–
"CCNC(=O)n1ncc2c3nn(-c4cc(C(F)(F)F)cc(C(F)(F)F)c4)c(=O)c-3c[nH]c21 [Compound 6q, 2-(3,5-bis(trifluoromethyl)phenyl)-N-ethyl-3-oxo-2,3-dihydrodipyrazolo[3,4-b:3′,4′-d]pyridine-6(5H)-carboxamide]",C (C indicates % inhibition <20%),–
CCNC(=O)n1ncc2c3nn(-c4ccccc4F)c(=O)c-3c[nH]c21,A (A indicates % inhibition >80%),B (B indicates % inhibition <80% and >20%)
"CNC(=O)n1ncc2c3nn(-c4ccc(Br)cc4)c(=O)c-3c[nH]c21 [Compound 6az, 2-(4-bromophenyl)-N-methyl-3-oxo-2,3-dihydrodipyrazolo[3,4-b:3′,4′-d]pyridine-6(5H)-carboxamide]",A (A indicates % inhibition >80%),–
"CC(C)NC(=O)n1ncc2c3nn(-c4ccc(Cl)c(C(F)(F)F)c4)c(=O)c-3c[nH]c21 [Compound 6t, 2-(4-chloro-3-(trifluoromethyl)phenyl)-N-isopropyl-3-oxo-2,3-dihydrodipyrazolo[3,4-b:3′,4′-d]pyridine-6(5H)-carboxamide]",C (C indicates % inhibition <20%),–
"CCCCNC(=O)n1ncc2c3nn(-c4ccc(F)cc4F)c(=O)c-3c[nH]c21 [Compound 6an, N-butyl-2-(2,4-difluorophenyl)-3-oxo-2,3-dihydrodipyrazolo[3,4-b:3′,4′-d]pyridine-6(5H)-carboxamide]",A (A indicates % inhibition >80%),B (B indicates % inhibition <80% and >20%)
